From EP4775208A1, “USE OF PRMT5 INHIBITOR IN TREATMENT OF TUMORS OR CANCERS” (Apeiron Therapeutics (Hong Kong) Ltd., priority 2023, dated 2025) come the findings set out here.

In test [1] the test system is HCT-116 MTAP(-/-) deficient cells. The experiment in a line: Inhibition of proliferation of HCT-116 MTAP(-/-) deficient cells (Cell-Titer Glo). It counts as cell-based. The conditions noted are these: 8 days. As for the experimental part:
Test 1: Compound's inhibitory activity on proliferation of HCT-116 MTAP(-/-) deficient cells.
Materials and Cells: HCT-116 MTAP(-/-) deficient cells obtained from Kyinno Bio (China); RPMI-1640 medium, fetal bovine serum, and penicillin-streptomycin purchased from Thermo Fisher Scientific (America); 384-well plates from PerkinElmer (America); Cell-Titer Glo assay kit from Promega (America).
Cell Culture: HCT116 MTAP(-/-) deficient cells were cultured in RPMI 1640 medium containing 10% fetal bovine serum and 1% penicillin-streptomycin at 37°C, 5% CO2. Only cells in logarithmic growth phase were used for experiments.
Cell Proliferation Inhibition Assay: The compound's inhibitory activity on HCT-116 MTAP(-/-) deficient cells was assessed using the Cell-Titer Glo assay kit. Adjusting cell concentration, 40 µL was seeded into a 384-well plate and cultured overnight at 37°C, 5% CO2. Each well received 40 nL of the compound, achieving concentrations from 0 to 10,000 nM (starting concentration 10,000 nM, 3-fold dilution, 10 points), with 0.1% DMSO. The cell plate was incubated for 8 days at 37°C, 5% CO2. Cell-Titer Glo reagent (40 µL) was added to measure cell viability.

Test [2] has as its system HCT-116 MTAP wild-type cells. The test can be described thus: Inhibition of proliferation of HCT-116 MTAP wild-type cells (Cell-Titer Glo). It counts as cell-based. The conditions noted are these: 8 days. The method, then:
Test 2: Compound's inhibitory activity on proliferation of HCT-116 MTAP wild-type cells.
Materials and Cells: HCT-116 MTAP wild-type cells obtained from Kyinno Bio (China); RPMI-1640 medium, fetal bovine serum, and penicillin-streptomycin purchased from Thermo Fisher Scientific (America); 384-well plates from PerkinElmer (America); Cell-Titer Glo assay kit from Promega (America).
Cell Culture: HCT116 MTAP wild-type cells were cultured in RPMI 1640 medium containing 10% fetal bovine serum and 1% penicillin-streptomycin at 37°C, 5% CO2. Only cells in logarithmic growth phase were used for experiments.
Cell Proliferation Inhibition Assay: The compound's inhibitory activity on HCT-116 MTAP wild-type cells was assessed using the Cell-Titer Glo assay kit. Adjusting cell concentration, 40 µL was seeded into a 384-well plate and cultured overnight at 37°C, 5% CO2. Each well received 40 nL of the compound, achieving concentrations from 0 to 10,000 nM (starting concentration 10,000 nM, 3-fold dilution, 10 points), with 0.1% DMSO. The cell plate was incubated for 8 days at 37°C, 5% CO2. Cell-Titer Glo reagent (40 µL) was added to measure cell viability.

On to `CN(C(=O)c1ccc2nc(N)c3nnnn3c2c1)[C@@H]1COc2cc(C(F)(F)F)ccc21` [Example 58, (S)-4-amino-N-methyl-N-(6-(trifluoromethyl)-2,3-dihydrobenzofuran-3-yl)tetrazolo[1,5-a]quinoxaline-8-carboxamide], for which the IC50 in test [1] (Homo sapiens, HCT-116, 192 h) is more than 3000 nM; in test [2] (Homo sapiens, HCT-116, 192 h), more than 10000 nM.
The corresponding values for `Nc1nc2cc(F)c(C(=O)N(C3CC3)C3CCOc4cc(-c5cncc(C(F)(F)F)c5)cnc43)cc2n2cncc12` (stereo not shown) [Example 59, 4-amino-N-cyclopropyl-7-fluoro-N-(7-(5-(trifluoromethyl)pyridin-3-yl)-3,4-dihydro-2H-pyrano[3,2-b]pyridin-4-yl)imidazo [1,5-a]quinoxaline-8-carboxamide] are 711 nM and more than 10000 nM.
As for `CN(C(=O)c1cc2c(cc1F)nc(N)c1cncn12)[C@@H]1CCOc2cc(C(F)(F)F)ccc21` [Example 60, (R)-4-amino-7-fluoro-N-methyl-N-(7-(trifluoromethyl)chroman-4-yl)imidazo[1,5-a]qui noxaline-8-carboxamide], the IC50 in test [1] (Homo sapiens, HCT-116, 192 h) came to 66.8 nM; in test [2] (Homo sapiens, HCT-116, 192 h), 7070 nM.
Turning to `CC1OC[C@@H](N(C)C(=O)c2cc3c(cc2Cl)nc(N)c2cncn23)c2ccc(F)cc21` (stereo partly drawn) [Example 61, 4-amino-7-chloro-N-( (4S)-7-fluoro-1-methylisochroman-4-yl)-N-methylimidazo[1,5-a] quinoxaline-8-carbox amide], the concentration for half-maximal inhibition (IC50) was 7.7 nM in test [1] (Homo sapiens, HCT-116, 192 h) and 882 nM in test [2] (Homo sapiens, HCT-116, 192 h).
The corresponding values for `CC1OC[C@@H](N(C)C(=O)c2cc3c(cn2)nc(N)c2cncn23)c2ccc(F)cc21` (stereo partly drawn) [Example 62, 4-amino-N-((4S)-7-fluoro-1-methylisochroman-4-yl)-N-methyli midazo[1,5-a]pyrido[3,4-e]pyrazine-8-carb oxamide] are 19.7 nM and 3710 nM.
The corresponding values for `CN(C(=O)c1cc2c(cc1Cl)nc(N)c1cncn12)[C@@H]1COc2ccc(F)cc21` [Example 63, (S)-4-amino-7-chloro-N-(5-fluoro-2,3-dihydrobenzofuran-3-yl)-N-methylimidazo[1,5-a] quinoxaline-8-carbox amide] are 46.8 nM and 3260 nM.
The corresponding values for `Cc1ncn2c1c(N)nc1ccc(C(=O)N(C)[C@@H]3COc4ccc(F)cc43)cc12` [Example 64, (S)-4-amino-N-(5-fluoro-2,3-dihydrobenzofuran-3-yl)-N,3-dimet hylimidazo[1,5-a]quin oxaline-8-carboxamide] are 278 nM and more than 20000 nM.
For the molecule `N#Cc1ccc2c(c1)OCC2N(C(=O)c1ccc2nc(N)c3cncn3c2c1)C1CC1` (stereo not shown) [Example 65, 4-amino-N-(6-cyano-2,3-dihydrobenzofuran-3-yl)-N-cyclopropyl imidazo[1,5-a]quinox aline-8-carboxamide], the IC50 in test [1] (Homo sapiens, HCT-116, 192 h) was 95.3 nM; in test [2] (Homo sapiens, HCT-116, 192 h), 5950 nM.
Turning to `CN(C(=O)c1ccc2nc(N)c3cncn3c2c1)[C@@H]1COc2ccc(F)cc21` [Example 66, (S)-4-amino-N-(5-fluoro-2,3-dihydrobenzofuran-3-yl)-N-methyli midazo[1,5-a]quinoxa line-8-carboxamide], the IC50 in test [1] (Homo sapiens, HCT-116, 192 h) was 2260 nM; in test [2] (Homo sapiens, HCT-116, 192 h) it was more than 20000 nM.
The corresponding values for `Nc1nc2cnc(C(=O)N(C3CC3)C3COc4cc(C(F)(F)F)ccc43)cc2n2cncc12` (stereo not shown) [Example 67, 4-amino-N-cyclopropyl-N-(6-(trifluoromethyl)-2,3-dihydrobenzof uran-3-yl)imidazo[1,5-a]pyrido[3,4-e]pyrazine-8-carboxamide] are 35.6 nM and 3640 nM.
The corresponding values for `CN(C(=O)c1ccc2nc(N)c3cncn3c2c1)[C@@H]1COc2cc(F)ccc21` [Example 68, (S)-4-amino-N-(6-fluoro-2,3-dihydrobenzofuran-3-yl)-N-methyli midazo[1,5-a]quinoxa line-8-carboxamide] are 382 nM and 8570 nM.
Take `Cc1ncn2c1c(N)nc1ccc(C(=O)N(C3CC3)C3COc4cc(C(F)(F)F)ccc43)cc12` (stereo not shown) [Example 69, 4-amino-N-cyclopropyl-3-methyl-N-(6-(trifluoromethyl)-2,3-dihydrobenzofuran-3-yl)i midazo[1,5-a]quinoxa line-8-carboxamide]: the IC50 is 87.1 nM in test [1] (Homo sapiens, HCT-116, 192 h) and 5020 nM in test [2] (Homo sapiens, HCT-116, 192 h).
As to `Cc1ncc(-c2ccc3c(c2)OCC3N(C(=O)c2ccc3nc(N)c4cncn4c3c2)C2CC2)cn1` (stereo not shown) [Example 72, 4-amino-N-cyclopropyl-N-(6-(2-methylpyrimidin-5-yl)-2,3-dihydrobenzofuran-3-yl)imi dazo[1,5-a]quinoxaline-8-carboxamide], the half-inhibitory concentration (IC50) in test [1] (Homo sapiens, HCT-116, 192 h) was 117 nM; in test [2] (Homo sapiens, HCT-116, 192 h), more than 20000 nM.
The corresponding values for `Nc1nc2ccc(C(=O)N(C3CC3)C3COc4cc(C(F)(F)F)ccc43)cc2n2cncc12` (stereo not shown) [Example 73, 4-amino-N-cyclopropyl-N-(6-(trifluoromethyl)-2,3-dihydrobenzof uran-3-yl)imidazo[1,5-a]quinoxaline-8-carb oxamide] are 55.5 nM and 4620 nM.
With `Nc1nc2ccc(C(=O)N(C3CC3)C3COc4cc(Br)ccc43)cc2n2cncc12` (stereo not shown) [Example 74, 4-amino-N-(6-bromo-2,3-dihydrobenzofuran-3-yl)-N-cyclopropyl imidazo[1,5-a]quinox aline-8-carboxamide], the IC50 came to 148 nM in test [1] and 5990 nM in test [2].
Regarding `CN(C(=O)c1ccc2nc(N)c3cncn3c2c1)[C@@H]1COc2cc(NS(=O)(=O)C(F)(F)F)ccc21` [Example 76, (S)-4-amino-N-methyl-N-(6-((trifluoromethyl)sulfonamido)-2,3-dihydrobenzofuran-3-yl)imida zo[1,5-a]quinoxaline-8-carboxamide], the IC50 in test [1] (Homo sapiens, HCT-116, 192 h) is more than 3000 nM; in test [2] (Homo sapiens, HCT-116, 192 h), more than 10000 nM.
The corresponding values for `CC1OC[C@@H](N(C)C(=O)c2ccc3nc(N)c4cncn4c3c2)c2cc(F)ccc21` (stereo partly drawn) [Example 77, 4-amino-N-((4S)-6-fluoro-1-methylisochroman-4-yl)-N-methylimidazo[1,5-a]quinoxaline-8-carboxamide] are 101 nM and 4260 nM.
The corresponding values for `CC1OC[C@@H](N(C)C(=O)c2ccc3nc(N)c4cncn4c3c2)c2cccnc21` (stereo partly drawn) [Example 108, 4-amino-N-methyl-N-((5S)-8-methyl-5,8-di hydro-6H-pyrano[3,4-b]pyridin-5-yl)imidaz o[1,5-a]quinoxaline-8-carboxamide] are 121 nM and more than 10000 nM.
The corresponding values for `CCOC(=O)c1ncn2c1c(N)nc1ccc(C(=O)N(C)C3COc4cc(C(F)(F)F)ccc43)cc12` (stereo not shown) [Example 109, ethyl 4-amino-8-(methyl(6-(trifluoromethyl)-2,3-dihydrobenzofuran-3-yl)carbamoyl)imidazo[1,5-a]quinoxaline-3-carboxylate] are more than 3000 nM and 9090 nM.
Consider `CN(C(=O)c1cc2c(cc1F)nc(N)c1cncn12)C1CCOc2cc(C(F)(F)F)cnc21` (stereo not shown) [Example 110, 4-amino-7-fluoro-N-methyl-N-(7-(trifluoromethyl)-3,4-dihydro-2 H-pyrano[3,2-b]pyridin-4-yl)imidazo[1,5-a] quinoxaline-8-carbox amide], for which the IC50 in test [1] (Homo sapiens, HCT-116, 192 h) is more than 3000 nM; in test [2] (Homo sapiens, HCT-116, 192 h) it was more than 10000 nM.
For the molecule `CN(C(=O)c1ccc2nc(N)c3cnc(Br)n3c2c1)[C@@H]1COc2cc(C(F)(F)F)ccc21` [Example 111, (S)-4-amino-1-bromo-N-methyl-N-(6-(trifluoromethyl)-2,3-dihydrobenzofuran-3-yl)imidazo[1,5-a]quinoxaline-8-carboxamide], the IC50 in test [1] (Homo sapiens, HCT-116, 192 h) is 500 nM; in test [2] (Homo sapiens, HCT-116, 192 h) it was more than 10000 nM.
The corresponding values for `CN(C(=O)c1ccc2nc(N)c3cncn3c2c1)[C@@H]1COc2cc(C(F)F)ccc21` [Example 112, (S)-4-amino-N-(6-(difluoromethyl)-2,3-dihydrobenzofuran-3-yl)-N-methylimidazo[1,5-a]quinoxaline-8-carboxamide] are 338 nM and more than 10000 nM.
For the molecule `CN(C(=O)c1cc2c(cc1F)nc(N)c1cncn12)[C@@H]1CCOc2cc(-c3cnn(C)c3)ccc21` [Example 114, (R)-4-amino-7-fluoro-N-methyl-N-(7-(1-methyl-1H-pyrazol-4-yl)chroman-4-yl)imidazo [1,5-a]quinoxaline-8-c arboxamide], the half-maximal inhibitory concentration (IC50) is 146 nM in test [1] (Homo sapiens, HCT-116, 192 h) and more than 10000 nM in test [2] (Homo sapiens, HCT-116, 192 h).
